A short description of assay [1]: Luminescence Cell-Based Dose Retest to Confirm Inhibitors of Cancer Stem Cells. [Related pubchem assays (depositor defined):AID2717, AID2721]. Format: functional. Particulars: Homo sapiens.
Assay [2] deals with FAD-linked sulfhydryl oxidase ALR (Homo sapiens, UniProt P55789). Kind of assay: inhibitors of human ALR sulfhydryl oxidase, dose response, biochemical, H2O2 detection, luminescence, cherry-pick (AID 493248).
The target in the next assay is Large T antigen (Simian virus 40, UniProt P03070). The class given is functional, Betapolyomavirus macacae.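 Further: Confirmatory-stage PubChem screen for compounds that inhibit SV40 T antigen.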
Chain of Large T antigen (P03070 whole entry): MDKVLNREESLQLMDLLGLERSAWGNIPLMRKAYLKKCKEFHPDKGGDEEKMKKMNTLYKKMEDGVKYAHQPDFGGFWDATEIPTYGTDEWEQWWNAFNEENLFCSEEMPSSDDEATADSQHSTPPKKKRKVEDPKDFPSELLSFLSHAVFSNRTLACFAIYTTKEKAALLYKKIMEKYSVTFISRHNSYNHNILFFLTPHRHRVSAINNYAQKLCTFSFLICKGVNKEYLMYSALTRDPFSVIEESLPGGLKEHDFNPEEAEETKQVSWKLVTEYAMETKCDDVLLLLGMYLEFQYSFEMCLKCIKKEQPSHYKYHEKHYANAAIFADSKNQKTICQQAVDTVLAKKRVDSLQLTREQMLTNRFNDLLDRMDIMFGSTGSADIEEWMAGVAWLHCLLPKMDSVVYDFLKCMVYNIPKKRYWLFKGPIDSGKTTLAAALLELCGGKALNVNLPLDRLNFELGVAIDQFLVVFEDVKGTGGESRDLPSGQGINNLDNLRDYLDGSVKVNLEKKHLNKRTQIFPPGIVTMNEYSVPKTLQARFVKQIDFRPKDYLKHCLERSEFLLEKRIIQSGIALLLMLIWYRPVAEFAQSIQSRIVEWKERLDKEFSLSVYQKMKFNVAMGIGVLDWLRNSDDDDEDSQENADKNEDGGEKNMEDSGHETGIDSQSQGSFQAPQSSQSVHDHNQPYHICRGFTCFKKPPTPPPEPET
The subject of a further assay is Vero. Kind of assay: cells. The class given is functional. Particulars: Chlorocebus sabaeus.
Assay [3] in a line: THP-1 cell cytotoxicity, dose response, cytotoxicity control for non-replicating M. tuberculosis project (AID 489025). The class given is functional.
The nature of assay [4]: cells. The class given is functional, cell-based.
The nature of assay [5]: cells. The class given is functional, cell-based. The source holds these as a separate data set.
Assay [6] addresses T1, Replicative DNA helicase DnaB (Mycobacterium tuberculosis, UniProt P9WMR3).
T1 sequence (P9WMR3 whole entry): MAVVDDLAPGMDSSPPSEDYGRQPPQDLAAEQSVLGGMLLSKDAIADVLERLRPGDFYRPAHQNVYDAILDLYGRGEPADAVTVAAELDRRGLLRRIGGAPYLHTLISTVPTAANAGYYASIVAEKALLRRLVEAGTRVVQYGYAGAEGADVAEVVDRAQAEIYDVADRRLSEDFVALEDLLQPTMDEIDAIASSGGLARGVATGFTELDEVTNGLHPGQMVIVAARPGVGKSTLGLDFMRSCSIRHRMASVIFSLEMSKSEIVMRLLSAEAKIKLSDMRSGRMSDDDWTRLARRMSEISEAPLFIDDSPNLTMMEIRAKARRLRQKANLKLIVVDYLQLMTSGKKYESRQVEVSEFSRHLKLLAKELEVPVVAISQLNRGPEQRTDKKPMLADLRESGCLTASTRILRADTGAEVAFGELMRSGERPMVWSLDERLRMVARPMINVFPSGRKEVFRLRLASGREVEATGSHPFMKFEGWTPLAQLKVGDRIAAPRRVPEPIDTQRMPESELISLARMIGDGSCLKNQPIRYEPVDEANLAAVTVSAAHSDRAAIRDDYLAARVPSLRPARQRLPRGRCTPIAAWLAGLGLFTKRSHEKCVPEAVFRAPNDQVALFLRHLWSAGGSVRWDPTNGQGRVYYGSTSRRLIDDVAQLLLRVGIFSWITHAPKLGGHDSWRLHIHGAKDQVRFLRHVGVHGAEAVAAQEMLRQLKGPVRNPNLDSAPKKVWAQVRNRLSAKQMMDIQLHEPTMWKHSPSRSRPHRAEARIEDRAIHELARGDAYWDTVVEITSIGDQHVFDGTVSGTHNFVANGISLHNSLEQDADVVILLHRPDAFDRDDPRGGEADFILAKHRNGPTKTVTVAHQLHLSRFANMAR
Kind of assay: DnaB intein splicing inhibitors, dose response, biochemical, cell-free fluorescence (AID 449749). The class given is functional.

The target of another assay is T2, Protein RecA (Mycobacterium tuberculosis, UniProt P9WHJ3).
T2 sequence (P9WHJ3 whole entry): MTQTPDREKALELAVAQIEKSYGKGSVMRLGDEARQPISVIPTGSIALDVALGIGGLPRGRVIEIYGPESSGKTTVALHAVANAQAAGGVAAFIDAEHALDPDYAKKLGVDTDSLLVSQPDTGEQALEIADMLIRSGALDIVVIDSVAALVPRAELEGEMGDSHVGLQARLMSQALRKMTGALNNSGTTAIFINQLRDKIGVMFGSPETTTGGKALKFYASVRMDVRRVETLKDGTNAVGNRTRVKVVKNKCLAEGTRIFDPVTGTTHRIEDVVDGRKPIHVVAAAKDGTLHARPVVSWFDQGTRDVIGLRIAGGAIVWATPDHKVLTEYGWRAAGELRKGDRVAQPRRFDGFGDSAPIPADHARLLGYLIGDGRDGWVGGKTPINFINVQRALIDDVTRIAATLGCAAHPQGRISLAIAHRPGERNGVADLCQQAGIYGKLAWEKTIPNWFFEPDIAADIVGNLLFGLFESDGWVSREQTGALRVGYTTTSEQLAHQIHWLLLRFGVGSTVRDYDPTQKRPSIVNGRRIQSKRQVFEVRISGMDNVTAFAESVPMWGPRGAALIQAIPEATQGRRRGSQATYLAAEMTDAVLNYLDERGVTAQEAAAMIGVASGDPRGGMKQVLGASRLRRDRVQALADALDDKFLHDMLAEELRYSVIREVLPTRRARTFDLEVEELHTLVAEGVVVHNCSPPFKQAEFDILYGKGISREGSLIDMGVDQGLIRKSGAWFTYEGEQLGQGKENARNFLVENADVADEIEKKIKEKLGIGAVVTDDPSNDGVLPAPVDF
Kind of assay: Fluorescence Cell-Free Homogeneous Dose Retest to Identify Inhibitors of RecA-Intein Splicing Activity. [Related pubchem assays (depositor defined):AID2097, AID2223, AID489010, AID492950]. The class given is functional.

In assay [7] the target is T3, Polyadenylate-binding protein 1 (Homo sapiens, UniProt P11940). The assay is described as follows: PABP1 MLLE–PAM2 interaction inhibitors, dose response, miRNA deadenylation inhibitor project, biochemical, fluorescence polarization, Cy5-PAM2 peptide, secondary (AID 602260). Format: functional. Particulars: read-out: IC50_Mean. (In fluorescence polarisation assays a small probe gives low polarisation when free and higher when bound to something large.)
T3 sequence (P11940 whole entry): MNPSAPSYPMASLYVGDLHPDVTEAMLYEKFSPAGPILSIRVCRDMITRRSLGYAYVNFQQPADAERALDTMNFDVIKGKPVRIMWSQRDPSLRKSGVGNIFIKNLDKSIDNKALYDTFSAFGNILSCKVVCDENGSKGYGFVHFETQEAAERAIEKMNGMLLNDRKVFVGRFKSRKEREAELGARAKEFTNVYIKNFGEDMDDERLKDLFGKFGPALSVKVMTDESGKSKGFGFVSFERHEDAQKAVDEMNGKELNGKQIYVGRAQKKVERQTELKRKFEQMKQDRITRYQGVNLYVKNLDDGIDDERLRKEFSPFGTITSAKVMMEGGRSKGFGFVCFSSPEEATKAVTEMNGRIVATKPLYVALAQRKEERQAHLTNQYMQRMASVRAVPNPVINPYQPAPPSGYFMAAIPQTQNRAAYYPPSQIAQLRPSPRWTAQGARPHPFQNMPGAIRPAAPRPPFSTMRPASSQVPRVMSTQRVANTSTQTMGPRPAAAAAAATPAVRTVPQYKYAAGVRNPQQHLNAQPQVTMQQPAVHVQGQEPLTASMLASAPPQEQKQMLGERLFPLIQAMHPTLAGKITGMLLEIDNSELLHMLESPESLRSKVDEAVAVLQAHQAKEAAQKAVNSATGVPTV

Assay [8] has as its target T3, Polyadenylate-binding protein 1. The assay is described as follows: PABP1 MLLE–PAM2 binding inhibitor potency, dose response, biochemical, fluorescence polarization, FITC-PAM2 peptide (AID 602259). The class given is functional. Particulars: read-out: IC50_Mean.
The target in another assay is Cytochrome P450 2C19 (Homo sapiens, UniProt P33261). The assay is described as follows: Cytochrome panel assay with activity outcomes. Panel member name: p450-cyp2c19 Compounds with AC50 equal or less than 10 uM are considered active. The class given is functional. The settings on record: read-out: AC50.
Chain of Cytochrome P450 2C19 (P33261 whole entry): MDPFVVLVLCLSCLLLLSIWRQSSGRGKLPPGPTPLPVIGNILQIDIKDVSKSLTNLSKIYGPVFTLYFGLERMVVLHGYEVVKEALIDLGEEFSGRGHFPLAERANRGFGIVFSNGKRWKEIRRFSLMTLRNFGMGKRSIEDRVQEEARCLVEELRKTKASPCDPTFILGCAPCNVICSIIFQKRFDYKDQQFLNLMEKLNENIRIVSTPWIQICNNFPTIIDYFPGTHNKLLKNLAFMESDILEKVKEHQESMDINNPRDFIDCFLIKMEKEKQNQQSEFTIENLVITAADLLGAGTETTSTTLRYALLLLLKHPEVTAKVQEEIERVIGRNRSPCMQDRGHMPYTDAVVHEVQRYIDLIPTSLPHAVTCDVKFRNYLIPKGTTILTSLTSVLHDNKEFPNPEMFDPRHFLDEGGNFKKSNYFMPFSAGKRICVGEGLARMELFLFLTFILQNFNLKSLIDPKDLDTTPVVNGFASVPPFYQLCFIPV
The nature of assay [9]: inhibitors of firefly luciferase expression or activity, dose response, H4 neuroglioma cells, luminescence (AID 1990). Format: functional, cell-based.
Assay [10] can be described thus: Luminescence Cell-Based Dose Response HTS to Identify Inhibitors of 5'UTR Stem-Loop Driven Prion Protein mRNA Translation in H4 Neuroglioblastoma Cells. [Related pubchem assays: 1827 (Project Summary), 1813 (Primary HTS)]. Format: functional.
Assay [11] is described as follows: inhibitors of SNCA 5'UTR-driven reporter translation, confirmation, H4 neuroglioma cells, luminescence (AID 1988). The class given is functional, cell-based.
Assay [12] can be described thus: NIH-3T3 fibroblast cytotoxicity, dose response, cytotoxicity control, cell-based, fluorescence, Alamar Blue, secondary assay (AID 2327).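 Further: NIH-3T3 mouse fibroblasts cultured with fluconazole at 8 µg/mL.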 The class given is functional.
In assay [13] the test system is Streptococcus sp. 'group A'. The assay is described as follows: growth inhibition of control SK(-) GAS strain, dose response, counter-screen for streptokinase expression inhibitor project, luminescence, kanamycin, BacTiterGlo, confirmation (AID 1900). The class given is functional, organism-based. In general terms: Counterscreens check selectivity or assay interference.

For the next assay, the target named is T4, Streptokinase A (Streptococcus pyogenes serotype M1, UniProt P10520).
T4 sequence (P10520 whole entry): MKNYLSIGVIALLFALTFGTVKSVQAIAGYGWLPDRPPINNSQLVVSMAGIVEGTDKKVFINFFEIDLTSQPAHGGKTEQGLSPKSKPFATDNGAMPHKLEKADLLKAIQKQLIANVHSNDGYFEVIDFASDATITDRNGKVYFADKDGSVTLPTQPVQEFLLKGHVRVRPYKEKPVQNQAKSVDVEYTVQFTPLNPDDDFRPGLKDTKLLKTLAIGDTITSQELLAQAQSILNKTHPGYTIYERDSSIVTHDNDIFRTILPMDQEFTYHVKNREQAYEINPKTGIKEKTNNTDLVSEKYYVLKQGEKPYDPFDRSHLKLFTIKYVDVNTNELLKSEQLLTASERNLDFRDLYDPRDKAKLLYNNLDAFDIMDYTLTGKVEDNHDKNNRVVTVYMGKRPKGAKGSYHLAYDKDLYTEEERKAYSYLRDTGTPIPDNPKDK
The assay is described as follows: S. pyogenes streptokinase expression inhibitors, potency, dose response, plasminogen activation absorbance, OD405 (AID 1914).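 Further: secreted streptokinase activity via plasminogen activation per viability signal from cell pellet.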 The class given is functional, Streptococcus pyogenes M1 GAS.

Assay [14] can be described thus: C. albicans growth with fluconazole, confirmation, fluorescence, retest (AID 2467). Format: functional, cell-based.
Assay [15] is described as follows: inhibitors of intracellular T. cruzi replication, confirmation, NIH3T3 host cells, beta-gal luminescence (AID 2044).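 Further: intracellular parasites grown in NIH/3T3 mouse fibroblasts as host cells; luminescent beta-galactosidase reporter signal from transgenic T. cruzi replicating inside host cells; inhibitors lower the luminescence signal.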 The class given is functional, cell-based.
A short description of assay [16]: cytotoxicity toward NIH3T3 fibroblasts, dose response, counter-screen, cell-based, ATP luminescence, mouse fibroblasts (AID 2010).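 Further: cells exposed to compound for about 90 hours before reading.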 The class given is functional.
The test system of another assay is Streptococcus. The assay is described as follows: Group A Streptococcus viability loss, dose response, counter-screen for streptokinase expression inhibitor project, luminescence, BacTiterGlo (AID 1915).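 Further: potency for reduction of bacterial viability or growth.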 The class given is functional, organism-based.
The next assay concerns INS1. Kind of assay: beta cell apoptosis inhibitors, cytokine rescue, dose response, luminescence, retest (AID 449756).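 Further: cell death triggered by IL-1 beta plus TNF-alpha plus IFN-gamma mixture; protective hits raise ATP signal compared with cytokine alone wells.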 The class given is functional, cell-based. Particulars: Rattus norvegicus.

Activity calls are given as the source filed them.

Chain of FAD-linked sulfhydryl oxidase ALR (P55789 whole entry): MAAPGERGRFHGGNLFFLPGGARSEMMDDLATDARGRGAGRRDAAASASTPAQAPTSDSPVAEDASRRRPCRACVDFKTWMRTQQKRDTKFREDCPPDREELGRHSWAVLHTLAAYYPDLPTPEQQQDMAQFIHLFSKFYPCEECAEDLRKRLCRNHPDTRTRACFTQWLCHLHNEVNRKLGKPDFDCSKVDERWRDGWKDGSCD

Regarding `CN1C(=O)C(=CNNc2ccccc2)C(=O)N(C)C1=O`, the results for the AC50 in assay [1] and in assay [2] were 2.87 µM (active) and 0.031 µM (active), respectively.

For the compound `CCOc1ccc(NCc2cccn2-c2nnc(N3CCC(C(=O)NCCCN4CC(C)CC(C)C4)CC3)s2)cc1` (stereo not drawn), the IC50 at Large T antigen is 19.3 µM (active). In the assay on Vero, the CC50 is 23.9 µM (active).

As for `CC(C)NS(=O)(=O)c1ccc2c(c1)NCC2`, the AC50 in assay [2] was 5.77 µM (active).

Regarding `O=S(=O)(c1ccc(OCC2CO2)cc1)c1ccc(OCC2CO2)cc1` (stereo not drawn), in [3], the CC50 is 32.2 µM (active).

With `O=C1Nc2ccc(Cl)cc2/C1=C/C1CC=CCC1` (stereo not drawn), the EC50 in “cells [4]” is > 350 µM (not active); in “cells [5]” it was 61.2 µM (active).

As for `COc1ccc(N2CCN(C(=O)CN(C)S(=O)(=O)c3cc(C)ccc3OC)CC2)cc1`, the EC50 in the assay “cells [4]” and in “cells [5]” was > 350 µM (not active) in each case.

Turning to `Cc1nc2ccccc2n2c(-c3ccccc3)c3c(=O)n(C)c(=O)n(C)c3c12`, the EC50 in “cells [4]” and in the assay “cells [5]” was > 350 µM (not active) each time.

For the compound `Cn1nc(C(C)(C)C)cc1C(=O)Sc1cccc(Br)c1`, the AC50 in [6] is 16.4 µM (active). Also, the EC50 on Protein RecA was 37.1 µM (inconclusive). Moreover, the IC50 in assay [7] and in [8] was > 66 µM (inactive) throughout.

With `COc1ccc(-c2nc(C#N)c(N3CCN(C(=O)c4ccco4)CC3)o2)cc1OC`, the EC50 in the assay “cells [4]” and in the assay “cells [5]” was > 350 µM (not active) in each case.

`O=C1c2ccccc2C(=O)N1CC1=CCS(=O)(=O)C1`: the IC50 in assay [7] and in assay [8] was > 66 µM (inactive) each time.

Consider `Oc1cc(O)nc(SCc2ccccc2)n1`, for which, in assay [2], the AC50 was 2.33 µM (active).

Consider `COc1cccc(-c2noc(Cn3nc(C)c([N+](=O)[O-])c3C)n2)c1`, for which the AC50 was 0.983 µM (active) in [2] and 1 µM (inconclusive) at Cytochrome P450 2C19.

As for `CN(Cc1ccccc1)C(=O)CC(=O)N(C)Cc1ccccc1`, the EC50 in “cells [4]” and in the assay “cells [5]” was > 350 µM (not active) throughout.

In the case of `CC(C)c1ccc(CN(C)C(=O)c2ccc(S(=O)(=O)NCc3ccco3)cc2)cc1`, in the assay on Vero, the CC50 is 12.7 µM (active).

Turning to `Nc1nonc1-n1nnc(C(=O)N/N=C/c2ccc(OCc3ccc(F)cc3)cc2)c1COc1ccccc1`, the CC50 with Vero is > 25 µM (active).

On to `O=C(N/N=C\c1c(O)ccc2ccccc12)c1ccc(O)cc1`, for which the EC50 in assay [9] is 10 µM (active); in the assay “cells [4]”, 10.6 µM (active); in [10], 8.71 µM (active); in [11], 5.97 µM (active); in “cells [5]”, > 350 µM (not active).

Turning to `CCN(CC)c1ccc(/C=N/NC(=O)CNC(=O)C2COc3ccccc3O2)c(O)c1` (stereo not drawn), the half-maximal effective concentration (EC50) in [12] is 5.42 µM (inconclusive); in assay [9], 0.229 µM (active); in assay [13], 8.15 µM (active); in the assay “cells [4]” it was 66.6 µM (active); in [10], 0.646 µM (active); in [11], 0.311 µM (active). Moreover, the EC50 at Streptokinase A is > 150 µM (not active); in assay [14], 1.51 µM (active); in assay [15], 1.2 µM (active); in “cells [5]” it was > 350 µM (not active); in assay [16] it was 4.2 µM (active); in the assay on Streptococcus it was > 150 µM (not active). For the same compound, the AC50 with INS1 was 1.31 µM (active).

With `COc1cc(/C=N/N2CCCCC2)cc(OC)c1O`, in assay [2], the AC50 was 0.639 µM (active).

With `CCC/C(=N/NC(=O)c1cccc(Cl)c1)c1ccccc1`, the EC50 in the assay “cells [4]” and in the assay “cells [5]” was > 350 µM (not active) in each case.

The term AC50 denotes the concentration at which the activity in the assay is half-maximal. The term CC50 denotes the concentration that lowers cell viability or growth by half. The EC50 is the concentration at which the effect is half-maximal.

Source of the values: ChEMBL document CHEMBL1201862, “PubChem BioAssay data set” (2004).
